Experimental data published in ChEMBL document CHEMBL4376882, “Photodynamic Therapy for ras-Driven Cancers: Targeting G-Quadruplex RNA Structures with Bifunctional Alkyl-Modified Porphyrins” (J Med Chem, 2020).
The source made the active and inactive calls. The calls are words filed in the database; no cut-off is given here.

Key:
PANC-1 [1] = test: Induction of apoptosis in human PANC1 cells assessed as cleavage of caspase 7 when photoirradiated at 7.2 J/cm2 by Western blot analysis; assay type: functional, cell-based
PANC-1 [2] = test: Induction of apoptosis in human PANC1 cells assessed as necrotic cells at 5 nM and photoirradiated at 7.2 J/cm2 measured after 6 to 24 hrs by annexin-V-propidium iodide staining based FACScalibur flow cytometry analysis (reference value: 0.7 %); assay type: functional
PANC-1 [3] = test: Cytotoxicity against human PANC1 cells assessed as reduction in metabolic activity at 20 nM after 24 to 72 hrs in dark followed by photoirradiation in presence of NADH and NAC by resazurin assay; assay type: functional, cell-based
Quadruplex DNA [4] = test: Binding affinity to human KRAS utr-z RNA g-quadruplex assessed as induction of hypochromicity at 1.6 uM by UV-vis spectrophotometry relative to control; assay type: nucleic-acid assay
Quadruplex DNA [5] = test: Binding affinity to human KRAS utr-z RNA g-quadruplex by fluorescence spectroscopy; assay type: nucleic-acid assay
PANC-1 [6] = test: Induction of apoptosis in human PANC1 cells assessed as viable cells at 15 nM and photoirradiated at 7.2 J/cm2 measured after 6 to 24 hrs in presence of NAC by annexin-V-propidium iodide staining based FACScalibur flow cytometry analysis (reference value: 94.5 %); assay type: functional; details: PANC-1, light or radiation study, read-out: Activity
[7] = Aggregation property of compound at > 40 degree C; assay type: physicochemical
PANC-1 [8] = test: Induction of apoptosis in human PANC1 cells assessed as late apoptotic cells at 15 nM and photoirradiated at 7.2 J/cm2 measured after 6 to 24 hrs by annexin-V-propidium iodide staining based FACScalibur flow cytometry analysis (reference value: 2.7 %); assay type: functional
PANC-1 [9] = test: Induction of apoptosis in human PANC1 cells assessed as viable cells at 10 nM and photoirradiated at 7.2 J/cm2 measured after 6 to 24 hrs in presence of NAC by annexin-V-propidium iodide staining based FACScalibur flow cytometry analysis (reference value: 94.5 %); assay type: functional; details: PANC-1, light or radiation study, read-out: Activity
Quadruplex DNA [10] = test: Binding affinity to human KRAS utr-1 RNA g-quadruplex by fluorescence spectroscopy; assay type: nucleic-acid assay
[11] = Drug uptake in human PANC1 cells at 5 uM after 2 hrs by FACS analysis; assay type: ADME, cell-based; details: panc-1, 2 h
PANC-1 [12] = test: Induction of apoptosis in human PANC1 cells assessed as late apoptotic cells at 5 nM and photoirradiated at 7.2 J/cm2 measured after 6 to 24 hrs in presence of NAC by annexin-V-propidium iodide staining based FACScalibur flow cytometry analysis (reference value: 1.3 %); assay type: functional
Quadruplex DNA [13] = test: Binding affinity to human KRAS utr-z RNA g-quadruplex assessed as compound-RNA complex stoichiometry ratio of 6:1 by Job's plot analysis; assay type: nucleic-acid assay
HEK293 = test: Cytotoxicity against human HEK293 cells assessed as reduction in metabolic activity after 24 to 72 hrs in dark followed by photoirradiation in presence of NADH by resazurin assay; assay type: ADME, cell-based
PANC-1 [14] = test: Induction of apoptosis in human PANC1 cells assessed as necrotic cells at 15 nM and photoirradiated at 7.2 J/cm2 measured after 6 to 24 hrs in presence of NAC by annexin-V-propidium iodide staining based FACScalibur flow cytometry analysis (reference value: 1 %); assay type: functional
PANC-1 [15] = test: Induction of apoptosis in human PANC1 cells assessed as late apoptotic cells at 10 nM and photoirradiated at 7.2 J/cm2 measured after 6 to 24 hrs in presence of NAC by annexin-V-propidium iodide staining based FACScalibur flow cytometry analysis (reference value: 1.3 %); assay type: functional
PANC-1 [16] = test: Induction of apoptosis in human PANC1 cells assessed as late apoptotic cells at 15 nM and photoirradiated at 7.2 J/cm2 measured after 6 to 24 hrs in presence of NAC by annexin-V-propidium iodide staining based FACScalibur flow cytometry analysis (reference value: 1.3 %); assay type: functional
PANC-1 [17] = test: Photodynamic antitumor activity against human PANC1 cells xenografted in SCID mouse assessed as reduction in tumor growth at 3 mg/kg administered intratumorally after 2 hrs photoirradiated by diode laser at 193 J/cm2 by micrometer caliper method; assay type: functional, organism-based
[18] = Drug uptake in human HEK293 cells at 5 uM and 4 degree C after 16 hrs by FACS analysis relative to 37 degree C; assay type: ADME, cell-based; details: hek293, 16 h
PANC-1 [19] = test: Induction of apoptosis in human PANC1 cells assessed as viable cells at 5 nM and photoirradiated at 7.2 J/cm2 measured after 6 to 24 hrs by annexin-V-propidium iodide staining based FACScalibur flow cytometry analysis (reference value: 91.9 %); assay type: functional; details: PANC-1, light or radiation study, read-out: Activity
PANC-1 [20] = test: Induction of apoptosis in human PANC1 cells assessed as cleavage of caspase 3 when photoirradiated at 7.2 J/cm2 by Western blot analysis; assay type: functional, cell-based
Quadruplex DNA [21] = test: Induction of ROS-mediated […] labeled Ras RNA g-quadruplex (unknown origin) degradation assessed as residual RNA g-quadruplex at 0.6 uM incubated for 15 to 30 mins followed by photoirradiation for 30 mins by PAGE analysis relative to control; assay type: nucleic-acid assay
MIA PaCa-2 = test: Cytotoxicity against human MIAPaCa2 cells harboring G12C point mutation assessed as reduction in metabolic activity after 48 hrs in dark followed by photoirradiation in presence of NADH by resazurin assay; assay type: functional, cell-based
PANC-1 [22] = test: Induction of apoptosis in human PANC1 cells assessed as cleavage of PARP1 when photoirradiated at 7.2 J/cm2 by Western blot analysis; assay type: functional, cell-based
PANC-1 [23] = test: Induction of apoptosis in human PANC1 cells assessed as viable cells at 5 nM and photoirradiated at 7.2 J/cm2 measured after 6 to 24 hrs in presence of NAC by annexin-V-propidium iodide staining based FACScalibur flow cytometry analysis (reference value: 94.5 %); assay type: functional; details: PANC-1, light or radiation study, read-out: Activity
PANC-1 [24] = test: Induction of apoptosis in human PANC1 cells assessed as necrotic cells at 10 nM and photoirradiated at 7.2 J/cm2 measured after 6 to 24 hrs by annexin-V-propidium iodide staining based FACScalibur flow cytometry analysis (reference value: 0.7 %); assay type: functional
PANC-1 [25] = test: Induction of apoptosis in human PANC1 cells assessed as late apoptotic cells at 5 nM and photoirradiated at 7.2 J/cm2 measured after 6 to 24 hrs by annexin-V-propidium iodide staining based FACScalibur flow cytometry analysis (reference value: 2.7 %); assay type: functional
[26] = Drug uptake in human PANC1 cells at 5 uM and 4 degree C after 16 hrs by FACS analysis relative to 37 degree C; assay type: ADME, cell-based; details: panc-1, 16 h
PANC-1 [27] = test: Cytotoxicity against human PANC1 cells assessed as reduction in metabolic activity after 48 hrs in dark followed by photoirradiation in presence of NADH by resazurin assay; assay type: functional, cell-based; details: PANC-1, light or radiation study
PANC-1 [28] = test: Induction of apoptosis in human PANC1 cells assessed as early apoptotic cells at 5 nM and photoirradiated at 7.2 J/cm2 measured after 6 to 24 hrs in presence of NAC by annexin-V-propidium iodide staining based FACScalibur flow cytometry analysis (reference value: 3.1 %); assay type: functional
PANC-1 [29] = test: Induction of apoptosis in human PANC1 cells assessed as viable cells at 10 nM and photoirradiated at 7.2 J/cm2 measured after 6 to 24 hrs by annexin-V-propidium iodide staining based FACScalibur flow cytometry analysis (reference value: 91.9 %); assay type: functional; details: PANC-1, light or radiation study, read-out: Activity

## CCCCCCCCCCCCCC[n+]1ccc(-c2c3nc(c(-c4cc[n+](C)cc4)c4ccc([nH]4)c(-c4cc[n+](C)cc4)c4nc(c(-c5cc[n+](C)cc5)c5ccc2[nH]5)C=C4)C=C3)cc1.[I-].[I-].[I-].[I-]
PANC-1 [1]
  Activity: Active
PANC-1 [2]
  Activity: 0.6%
PANC-1 [3]
  Activity: inactive
Quadruplex DNA [4]
  Activity: 50%
Quadruplex DNA [5]
  Kd: 219 nM
PANC-1 [6]
  viability at 0.015 µM: 89.4%
[7]
  Activity: Active
PANC-1 [8]
  Activity: 20.8%
PANC-1 [9]
  viability at 0.01 µM: 90.9%
Quadruplex DNA [10]
  Kd: 236 nM
[11]
  Drug uptake: Active
PANC-1 [12]
  Activity: 1.1%
Quadruplex DNA [13]
  Activity: Active
HEK293
  Activity: Non-Toxic
PANC-1 [14]
  Activity: 1.7%
PANC-1 [15]
  Activity: 3.1%
PANC-1 [16]
  Activity: 5%
PANC-1 [17]
  Activity: Active
[18]
  Drug uptake: Active
PANC-1 [19]
  viability at 0.005 µM: 88.2%
PANC-1 [20]
  Activity: Active
Quadruplex DNA [21]
  Activity: 30%
MIA PaCa-2
  Activity: Active
PANC-1 [22]
  Activity: Active
PANC-1 [23]
  viability at 0.005 µM: 95.2%
PANC-1 [24]
  Activity: 2.2%
PANC-1 [25]
  Activity: 6.1%
[26]
  Drug uptake: 24%
PANC-1 [27]
  EC50: 13.7 nM
PANC-1 [28]
  Activity: 2.4%
PANC-1 [29]
  viability at 0.01 µM: 82.1%
